Data set [1] concerns the target T1, Polypeptide N-acetylgalactosaminyltransferase 2 (Homo sapiens, UniProt Q10471). In words: Competitive inhibition of human recombinant FLAG-tagged ppGalNAcT2 expressed in HEK293 cells using EA2 peptide as substrate by HPLC-based enzyme assay.
In data set [2] the target is T1, Polypeptide N-acetylgalactosaminyltransferase 2. In words: Non-competitive inhibition of human recombinant FLAG-tagged ppGalNAcT2 expressed in HEK293 cells using UDP-GalNAc as substrate by HPLC-based enzyme assay.
Data set [3] deals with T2, Polypeptide N-acetylgalactosaminyltransferase 1 (Homo sapiens, UniProt Q10472).
T2 sequence (Q10472 whole entry): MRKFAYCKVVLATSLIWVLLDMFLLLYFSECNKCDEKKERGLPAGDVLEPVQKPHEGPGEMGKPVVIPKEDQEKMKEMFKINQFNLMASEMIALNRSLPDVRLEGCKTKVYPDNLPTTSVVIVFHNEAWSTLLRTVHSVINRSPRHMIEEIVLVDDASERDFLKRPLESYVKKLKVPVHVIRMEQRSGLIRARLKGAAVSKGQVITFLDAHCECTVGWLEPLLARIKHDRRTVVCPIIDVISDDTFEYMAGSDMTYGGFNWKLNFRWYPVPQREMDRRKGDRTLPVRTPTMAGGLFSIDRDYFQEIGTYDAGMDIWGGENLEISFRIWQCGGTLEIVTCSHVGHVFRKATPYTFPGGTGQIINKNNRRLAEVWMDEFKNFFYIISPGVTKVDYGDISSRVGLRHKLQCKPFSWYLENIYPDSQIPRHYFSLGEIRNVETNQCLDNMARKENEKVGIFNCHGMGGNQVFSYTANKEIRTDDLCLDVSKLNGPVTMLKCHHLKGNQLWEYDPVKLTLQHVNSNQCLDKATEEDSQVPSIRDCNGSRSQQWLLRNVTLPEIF
Kind of data set: Inhibition of catalytic activity of ppGalNAcT1 (unknown origin) using EA2 peptide as substrate incubated for 30 mins by HPLC-based enzyme assay.

Data set [4] addresses T3, UDP-N-acetylglucosamine--peptide N-acetylglucosaminyltransferase 110 kDa subunit (Homo sapiens, UniProt O15294).
T3 sequence (O15294 whole entry): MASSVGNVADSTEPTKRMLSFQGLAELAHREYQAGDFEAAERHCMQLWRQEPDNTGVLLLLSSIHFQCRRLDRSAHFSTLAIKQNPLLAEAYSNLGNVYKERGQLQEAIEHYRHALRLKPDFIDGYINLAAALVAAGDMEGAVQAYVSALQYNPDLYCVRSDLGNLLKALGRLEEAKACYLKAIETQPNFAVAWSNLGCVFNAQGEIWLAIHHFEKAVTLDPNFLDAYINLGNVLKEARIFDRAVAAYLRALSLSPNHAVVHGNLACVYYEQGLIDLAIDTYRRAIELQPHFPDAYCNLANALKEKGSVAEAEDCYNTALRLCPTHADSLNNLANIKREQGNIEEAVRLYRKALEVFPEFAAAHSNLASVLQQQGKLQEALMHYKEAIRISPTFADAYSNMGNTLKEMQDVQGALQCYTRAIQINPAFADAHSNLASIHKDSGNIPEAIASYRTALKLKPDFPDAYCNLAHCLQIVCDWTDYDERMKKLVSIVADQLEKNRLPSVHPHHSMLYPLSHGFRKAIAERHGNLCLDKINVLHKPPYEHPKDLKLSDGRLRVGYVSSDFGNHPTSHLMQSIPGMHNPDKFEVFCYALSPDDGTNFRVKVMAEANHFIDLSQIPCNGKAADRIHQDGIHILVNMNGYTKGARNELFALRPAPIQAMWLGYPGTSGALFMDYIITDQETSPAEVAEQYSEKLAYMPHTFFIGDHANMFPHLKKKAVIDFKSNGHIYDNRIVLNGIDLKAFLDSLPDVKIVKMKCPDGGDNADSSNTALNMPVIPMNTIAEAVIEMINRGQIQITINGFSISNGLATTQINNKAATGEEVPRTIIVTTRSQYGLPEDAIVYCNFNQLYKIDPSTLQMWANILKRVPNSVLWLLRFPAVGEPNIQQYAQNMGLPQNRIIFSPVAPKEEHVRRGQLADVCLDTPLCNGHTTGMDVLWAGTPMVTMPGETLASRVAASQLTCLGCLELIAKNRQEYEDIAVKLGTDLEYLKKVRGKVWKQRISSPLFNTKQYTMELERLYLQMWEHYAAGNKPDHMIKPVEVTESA
Kind of data set: Inhibition of catalytic activity of OGT (unknown origin) using EA2 peptide as substrate incubated for 30 mins by HPLC-based enzyme assay.

Another data set is filed under the species Homo sapiens. In words: Ratio of IC50 for IC50 for human recombinant FLAG-tagged ppGalNAcT2 W282A mutant to IC50 for human recombinant FLAG-tagged ppGalNAcT2.
Data set [5] relates to HT-29. Kind of data set: Effect on N-glycans in human HT-29 cells assessed as change in ConA expression at 40 uM incubated for 48 hrs by Western blot analysis. Conditions: ht-29, 48 h. The format is ADME, cell-based. In general terms: Immunoblotting shows a protein as a band on a membrane.
For data set [6], the system named is HT-29. Kind of data set: Effect on ppGalNAcT2 expression level in human HT-29 cells at 40 uM incubated for 48 hrs by Q-PCR analysis. In kind it is ADME, cell-based. Conditions: ht-29, 48 h.
The subject of data set [7] is HT-29. In words: Effect on ppGalNAcT12 expression level in human HT-29 cells at 40 uM incubated for 48 hrs by Q-PCR analysis. In kind it is ADME, cell-based. Conditions: ht-29, 48 h.
For data set [8], the target named is T1, Polypeptide N-acetylgalactosaminyltransferase 2. Kind of data set: Inhibition of ppGalNAcT2 in human RKO cells assessed as reduction in O-GalNAc glycosylation by measuring VVA lectin expression at 40 uM incubated for 48 hrs by Western blot analysis. The format is cell-based.
The subject of data set [9] is HT-29. In words: Cytotoxicity against human HT-29 cells at 40 uM incubated for 48 hrs by CCK-8 assay. In kind it is cell-based. Conditions: ht-29, 48 h. Background: Tetrazolium dyes change colour on reduction, which living cells bring about.
For another data set, the system named is SW480. In words: Cytotoxicity against human SW480 cells at 40 uM incubated for 48 hrs by CCK-8 assay. In kind it is cell-based. Conditions: sw480, 48 h.

SMILES strings stand for the structures. The source made the active and inactive calls. The calls are words filed in the database; no cut-off is given here.

Broadly, the Ki is a dissociation constant, usually derived from enzyme kinetics or from competition with a known ligand. A word on the IC50: it is the concentration that inhibits the measured activity by half. Low values mean greater potency in that assay, high ones weaker potency in that assay.

T1 sequence (Q10471 whole entry): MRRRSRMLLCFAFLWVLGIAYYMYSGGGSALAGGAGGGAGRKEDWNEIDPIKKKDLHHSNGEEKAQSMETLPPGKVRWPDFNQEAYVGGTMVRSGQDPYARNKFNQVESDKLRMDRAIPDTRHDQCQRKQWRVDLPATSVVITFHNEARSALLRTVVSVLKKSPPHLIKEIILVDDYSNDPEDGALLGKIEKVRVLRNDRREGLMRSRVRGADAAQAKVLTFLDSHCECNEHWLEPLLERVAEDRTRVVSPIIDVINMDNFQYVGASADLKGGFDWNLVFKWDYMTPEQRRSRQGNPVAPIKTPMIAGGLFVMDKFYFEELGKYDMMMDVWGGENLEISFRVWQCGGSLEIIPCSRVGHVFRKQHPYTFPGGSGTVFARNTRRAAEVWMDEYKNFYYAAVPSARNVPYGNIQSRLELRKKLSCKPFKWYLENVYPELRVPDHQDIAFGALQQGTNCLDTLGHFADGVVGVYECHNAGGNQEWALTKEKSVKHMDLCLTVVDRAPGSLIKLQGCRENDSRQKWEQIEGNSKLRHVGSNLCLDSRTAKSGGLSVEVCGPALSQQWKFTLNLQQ

For `O=c1oc2c(O)c(O)ccc2c2cc(O)c(O)cc12`, the Ki was 1.07 µM in data set [1] and 6.15 µM in data set [2]. Moreover, the IC50 in data set [3] was 2.46 µM; in data set [4], above 100 µM. In addition, the Ratio IC50 in the data set filed under Homo sapiens came to 4. The Activity result in the data set with HT-29 [5], in the data set on HT-29 [6], in the data set on HT-29 [7], in the data set with HT-29 [9] and in the data set on SW480 was “Non-Toxic” throughout. Moreover, the inhibition entry in data set [8] was “Active”.

The values above are taken from ChEMBL document CHEMBL4385620, “Inhibition of polypeptide N-acetyl-α-galactosaminyltransferases is an underlying mechanism of dietary polyphenols preventing colorectal tumorigenesis” (Bioorg Med Chem, 2019).
